Data: ChEMBL document CHEMBL1159003, “Chemical investigation and anti-inflammatory activity of Vitex negundo seeds” (1992)

Test system: Rattus norvegicus
Assay: Antiinflammatory activity in Sprague-Dawley rat assessed as inhibition of carrageenan-induced paw edema at 50 mg/kg, po after 3.5 hrs
Format: functional

Compound | inhibition in vivo at 50 mg/kg
CC1(C)CC[C@]2(C(=O)O)CC[C@]3(C)C(=CC[C@@H]4[C@@]5(C)C[C@H](O)[C@@H](O)C(C)(C)C5=CC[C@]43C)[C@@H]2C1 | 34.3%
CC(C)Cc1ccc(C(C)C(=O)O)cc1 (stereo not drawn) [IBUPROFEN] | 63.2%
CC1(C)CC[C@]2(C(=O)O)CC[C@]3(C)C(=CC[C@@H]4[C@@]5(C)C[C@@H](O)[C@@H](O)C(C)(C)C5=CC[C@]43C)[C@@H]2C1 | 18.7%
